# Entries after “also recorded” stand apart in the source; their conditions may differ.
# Assays:
# [1] = Drug loading of NPs quantified by HPLC; format: physicochemical; details: loading into PLGA nanoparticles
# Experimental: For both rapamycin and 4-hydoxy-TEMPO encapsulated nanoparticles (RapaTEMPO-NPs) were synthesized by a combination (1000 mg) and rapamycin (20 mg) and 4-hydoxy-TEMPO (20 mg) (polymer to total drug ratio […]) was chosen. Also, 50 mg of 3,3′-diethylthiadicarbocyanine iodide (Cy5, 680 fluorescent emission agent) was dissolved in 20 mL of DMSO. The mixture was then added into the dispersing phase (40 mL of water with 1.2 mL of 10% Pluronic F-68) dropwise under moderate magnetic stirring (500 rpm, 1 h). For size and shape measurements, synthesized nanomaterials were examined by SEM using a TESCAN GAIA-3 XMH integrated focused ion beam-FESEM electron microscope. […] XPS spectra of the samples were recorded on a Kratos Analytical AXIS Supra system with a monochromated Al/Ag X-ray source (Al target). Total survey spectra were recorded in a range from 1300 to −5 eV binding energy (dwell time 200 ms, step size 1 eV, 2 sweeps), and all the region scans were conducted with suitable ranges (dwell time 500 ms, step size 0.05 eV and 5 sweeps). The FTIR spectra were recorded using a Bruker ALPHA (Platinum-ATR) spectrometer in the diffuse reflectance mode at a resolution of 4 cm^−1. The rapamycin and 4-yydoxy-TEMPO loading efficiencies were quantified by High-Performance Liquid Chromatography (HPLC; SHIMADZU). […]
# [2] = Drug release from NPs by dialysis and HPLC; format: physicochemical; details: monitored over a 7-day period; growth media with serum
# Excerpt: FIGS. 1A-I depict synthesis and characterization of polycystic kidney targeted nanoparticles. FIG. 1A: Schematic representation of synthesis, drug loading and surface functionalization of PLGA nanoparticles. FIG. 1B: The morphological features of the plain (unloaded) and drugs-loaded PLGA nanoparticles were imaged with scanning electron microscopy. Scale bars, 200 nm. FIG. 1C: Hydrodynamic size distribution of unloaded and drugs-loaded nanoparticles. FIG. 1D: Average zeta-potential measurements of unloaded and drugs-loaded nanoparticles. FIG. 1E: Average hydrodynamic size stability measurements of nanoparticles in saline (PBS), mouse plasma and growth media (DMEM) containing fetal bovine serum. […]
# For both rapamycin and 4-hydoxy-TEMPO encapsulated nanoparticles (RapaTEMPO-NPs) were synthesized by a combination (1000 mg) and rapamycin (20 mg) and 4-hydoxy-TEMPO (20 mg) (polymer to total drug ratio […]) was chosen. […] XPS spectra of the samples were recorded on a Kratos Analytical AXIS Supra system with a monochromated Al/Ag X-ray source (Al target). Total survey spectra were recorded in a range from 1300 to −5 eV binding energy (dwell time 200 ms, step size 1 eV, 2 sweeps), and all the region scans were conducted with suitable ranges (dwell time 500 ms, step size 0.05 eV and 5 sweeps). […]
# [3] = test system: ADPKD cells; assay: 3D cyst culture in Matrigel/collagen with forskolin and EGF; format: cell-based, human; details: 3D culture, treatment from day 1, evaluated on day 6
# Experimental: FIGS. 2A-C depict functional nanoparticle-targeting in 3-dimensional culture. FIG. 2A: Human renal epithelia from normal kidney (NK) cells and autosomal dominant polycystic kidney disease (ADPKD) were grown to form cysts in a 3D Matrigel system with collagen in the presence of forskolin and EGF for 1 day followed by different treatments for 5 additional days. All representative live DIC and fluorescence images were taken at 6 days. Control treatment was denoted as vehicle (saline-only). 3D non-cyst/cyst cultures were imaged for nanoparticles uptake, cyst formation and cysts size measurements. The inset images at the right showing the enlarged cystic area taken from the white square boxes selected from the images at the left. Scale bar, 200 μm. FIG. 2B: Percent number of cysts were measured and plotted in bar graphs; each point represents an averaged of replicate.
# 3D cyst culture and live imaging. […] To assess the effects of vehicle (saline) and different plain and drug-loaded nanoparticles (1 mg/mL) were added (10 μL) on day one after stimulation with forskolin and cyst formation were evaluated on day 6. The cyst growth was observed by using Nikon live cell microscope using its DIC and fluorescence capabilities. […] Using ×20 lens, the number of cysts and their sizes (in diameter) in each well was counted and measured using an ocular scale from the Nikon Eclipse Imaging Software. […]
# [4] = test system: mTOR signaling pathway; assay: Immunoblotting of p-S6K and p-S6 in kidney lysates; format: in vivo, mice; details: end of 9 weeks of therapy
# Experimental: Drug-NPs were administered intravenously once, while drug-only was intravenously injected daily. N=5. […] Total-S6K (t-S6K), total-S6 (t-S6) and equal loading control (GAPDH). N=3. FIG. 4C: Immunoblot data for p-S6K in bar graphs. […] Statistical analysis was performed using ANOVA followed by Tukey's multiple comparison test.
# Immunoblotting. After the completion of in-life studies, mice treated with the different control, plain and drug-loaded nanoparticles were euthanized, and the kidneys were collected and rinsed with PBS. Approximately 100 mg of tissue samples were placed in RIPA buffer supplemented with Complete Protease Inhibitor (MedChemExpress). […] Samples were then centrifuged at 20 000 rpm for 15 min, and the supernatants were collected and subjected to protein quantification. The PAGE (polyacrylamide gel electrophoresis) on 8-10% SDS gels was performed, followed by semi-dry transfer to PVDF membranes using a Bio-Rad Trans-Blot (Turbo Transfer) machine and detection using antibodies against p-S6 (1:000), p-S6K (1:1000), t-S6 (1:2000), t-S6K (1:2000) and GAPDH (1:1,000) (Cell Signaling Technology). Blots were scanned with both calorimetries to image molecular markers and chemiluminescence to capture the protein signal intensity using a BioRad Gel-doc imaging system.
# [5] = test system: Pkd2 mice; assay: CT imaging of total kidney volume; format: in vivo; details: CT at 3, 6 and 9 weeks
# Experimental: FIGS. 20A-C. FIGS. 20A-B depict coronal and trans-axial CT imaging of mice at 3, 6 and 9 weeks of treatment time. FIG. 20C: Plots showing the total kidney volume at 3, 6 and 9 weeks of treatment time.
# Because RapaTEMPO-NPs were applied prior to severe cystic development in the kidneys, lateral (FIG. 20A) and cross-section (FIG. 20B) of computerized tomography scans were performed in the kidneys at 3-, 6- and 9-weeks to monitor progression of changes in kidney volume. […] Longitudinal effects on blood pressure were also monitored throughout the treatment period (FIG. 21). The increase in blood pressure in kidney-specific Pkd2 seemed to be associated with expansion of renal cysts leading to compression in renal vasculature and eventual RAAS activation.
# [6] = test system: polycystic kidneys; details: literature; cited from earlier work
# [7] = test system: Pkd2 mice; assay: 9-week treatment of Pkd2 mice: body weight, survival, cysts, fibrosis, kidney fluorescence; details: long-term use, drug-alone 1 mg/kg i.v. daily
# Excerpt: FIG. 5A: Kidney comparison of wild-type (WT) and Pkd2 kidneys after 9-weeks of treatment. Color, brightfield, fluorescent images were captured consecutively. The hematoxylin and eosin (H&E) sections were obtained from the same corresponding kidneys.
# FIG. 5B: Fluorescence intensity measurements from isolated kidneys were normalized to total kidney volume (TKV). […] FIG. 5D: Total kidney weight measurement. FIG. 5D. Percent weight ratio of 2 kidneys to body weight (2 KW/BW). FIG. 5F: Total cyst number calculated using H&E staining. FIG. 5G: Kaplan-Meier survival curves analyzed with Log-rank test. N=5 for all experiments. *P<0.05, **P<0.01, ***P<0.001, ****P<0.0001 compared to wild-type vehicle. #P<0.05, ##P<0.01, #44P<0.001, #44t #P<0.0001 compared to Pkd2 vehicle. Statistical analysis was performed using ANOVA followed by Tukey's multiple comparison test.
# Animal studies. […] All animal experimentation was conducted as double-blinded operators to disregard biases and critical analyses. All control (KspCre·Pkd2^WT/WT) and PKD (KspCre·Pkd2^flox/flox) non-inducible mice models were obtained from the Jackson Laboratory and Harvard Medical School.
# Histology Studies. Sections of the mouse visceral organs (hearts, kidneys, livers, spleens, and lung)s, were collected and subjected to hematoxylin and eosin (H&E) staining by starting the tissue fixation using 10% formalin. Then, the tissues were dehydrated in buffered formalin, ethanol, and xylene. Finally, the tissues were embedded in liquid paraffin, sectioned (5 μm), and stained with H&E for histological examinations. The pathology slices were observed and imaged using a KEYENCE BZ-X710 microscope. Mouse normal and polycystic kidney sections were stained with Masson's trichrome to detect fibrosis using a Masson's Trichrome Stain Kit (Polysciences, Inc.).
# Throughout the studies, KspCre·Pkd2^WT/WT and KspCre·Pkd2^flox/flox mouse models were used and are respectively referred to wild-type and Pkd2 mice henceforth.
Compound,"Drug loading, weight ratio drug/NPs [1]",Time of maximum drug release from NPs [2],Cyst number and size [3],Effect on levels of phosphorylation of S6K and S6 [4],Total kidney volume over treatment time [5],Kidney injury and fibrosis [6],Body weight [7],Body weight ([7]; listed as rapamycin-alone)
"CC1(C)CC(O)CC(C)(C)N1[O] [4-hydroxy-[2,2,6,6-tetramethylpiperidin-1-yl]oxidanyl]",34.7±3.1%,about 3 days,some effect,minimal effect,no effect in kidney volume expansion,alleviate kidney injury and fibrosis by reducing renal superoxide,,
CO[C@H]1C[C@@H]2CC[C@@H](C)[C@@](O)(O2)C(=O)C(=O)N2CCCC[C@H]2C(=O)O[C@H]([C@H](C)C[C@@H]2CC[C@@H](O)[C@H](OC)C2)CC(=O)[C@H](C)/C=C(\C)[C@@H](O)[C@@H](OC)C(=O)[C@H](C)C[C@H](C)/C=C/C=C/C=C/1C [rapamycin],,,,,,,reduced,significantly lowered the body weight; also recorded: nor reduces the impediment in body weight gain
